We go through 1 compound from patent US8026231B2, “Aminothiolester compounds, pharmaceutical and cosmetic compositions containing same and uses thereof” (CNRS, priority 2000, dated 2011).

In test [1] the test system is DU145 cells. Briefly: Combination of two compounds of the invention on the growth of DU145 cells. The format is cell-based, human. The following applies: 2 μM. As to the method:
10^5 normal human prostate cells or 10^5 cancerous human prostate cells (DU145) are incubated in various wells of a microplate in 1 ml of culture medium.
The compounds are added 4 hours after placing the cells in the wells.
After 72 hours, the cells are removed at different times. The DU145 cells or the normal cells are washed twice with PBS and recovered directly with 0.1M sodium chloride.
The effect on the growth of the DU145 cells or the normal cells is measured by protein assay according to the Lowry method (Lowry, O. H., Rosenbrough, N. J., Farr, A. L. and Randall, J. Biol. Chem. 193, 265-275, (1951)) and DNA assay by the Hoechst method (West, D. C., Sattar, A. and Kumar, S., Anal. Biochem. 147, 289-295, (1985)).

The subject of a further test is BAF3-bcl2 G18 cells. Briefly: Apoptosis induction (DNA fragmentation) in BAF3-bcl2 clone G18, 24 h. The format is cell-based, mouse. The protocol: (§1) The BAF3-bcl2 cells correspond to BAF3 cells (mouse lymphocyte cells) tranfected with the bcl2 gene. Among these cells, four lines known as H16, G18, B14 and G21 overexpress the bcl2 gene.
(§2) Whereas the BAF3-b0 cells undergo apoptosis (more than 80% of the cells) in the absence of interleukin 3 (IL3) in 16 hours [according to Collins, M. K. L., Marvel, J., Malde, P. & Lopez-Rivas, A., J. Exp. Med. 176, 1043-1051, (1992)], the BAF3-bcl2 cells show no sign of apoptosis in the absence of IL3. They are thus apoptosis-resistant.
(§3) The procedure which was used is as follows: • The BAF3-b0 or BAF3-bcl2 cells, cultured in the presence of IL3, were labelled by a method adapted from that disclosed in Wright, S. et al., J. of Cell. Biochem. 48, 344-355, (1992).
(§4) 10^5 cells/ml were incubated with 4.62 KBq.ml^−1 [^3H]-thymidine for 40 hours at 37° C. After two washes with culture medium, 2.5×10^6 cells were cultured in the presence of the test compound.
(§5) After incubating for 24 hours, these cells were recovered by centrifugation at 400×g for 5 minutes and washed 3 times with PBS buffer. The cells recovered in the pellet were lysed in 2 ml of 0.1% Triton X-100, 20 mM EDTA, 5 mM Tris pH 8 and centrifuged at 30 000×g at 4° C. for 30 minutes.
(§6) The supernatants were recovered and the pellets dissolved in 0.3 ml of 0.5N NaOH.
(§7) Aliquots of the culture medium (1 ml), of the supernatant (0.3 ml) and of the dissolved pellet (0.1 ml) were assayed in a scintillation counter.
(§8) The percentage of DNA fragments is calculated in the following way:
(§9) The percentage of fragmentation of the DNA is a direct measure of the apoptosis which the cells have undergone.

Another test concerns BAF3-bcl2 B14 cells. Briefly: Apoptosis induction (DNA fragmentation) in BAF3-bcl2 clone B14, 24 h. Format: cell-based, mouse. As to the method:
as §1, §2, §3, §4, §5, §6, §7, §8, §9

The next test has as its system K562 cells. Briefly: Growth of K562 cells (control, no MDR overexpression). Format: cell-based, human. The following applies: increasing concentrations, 72 h, FIGS. 7 and 8. The protocol:
10^5 cells were incubated in the various wells of a microplate in 1 ml of culture medium. These are R7 cells, on the one hand, and K562 cells, on the other hand.
After incubating for 4 hours, the test compound (compound of Example 1 according to the invention, on the one hand, and daunorubicin, on the other hand) was added to the wells containing the cells.
After 72 hours, the cells were collected at different times.
The growth of the cells was measured by counting the viable cells in the presence of 0.1% Trypan blue.
FIGS. 7 and 8 respectively represent the percentage inhibition (I %) by daunorubicin and the compound of Example 1 on the growth of the R7 and K562 cells, obtained at increasing concentrations C. The results obtained with the K562 cells are symbolized by ♦ and those obtained with the R7 cells are symbolized by ▴.

The subject of the next test is BAF3-b0 cells. Briefly: Apoptosis induction (DNA fragmentation) in BAF3-b0 cells, 24 h. Format: cell-based, mouse. As to the method:
as §1
Hereinbelow, the cells known as BAF3-b0 correspond to BAF3 cells not transfected with the bcl2 gene.
as §2, §3, §4, §5, §6, §7, §8, §9

A further test deals with BAF3 bcl2 cells. Nature of the test: Growth of BAF3 bcl2 cells (viable cell count, Trypan blue). The following applies: 50% inhibition of cell growth. Format: cell-based, murine. The protocol:
The cells used correspond to two cell lines: metastatic cells of human prostate cancer (DU145) and murine lymphoid cells transfected with the human bcl2 gene (BAF3 bcl2).
The procedure used for the tests on BAF3 bcl2 cells is as follows: • 10^5 cells are incubated in the various wells of a microplate in 1 ml of culture medium. After incubation for 4 hours, the test compounds are added to the wells containing the BAF3 bcl2 cells.
For the BAF3 bcl2 cells, the growth is measured by counting the viable cells in the presence of 0.1% Trypan blue. The control consists of thioampal, disclosed in patent application WO 98/44919.
The IC50 concentration is the concentration corresponding to a 50% inhibition of cell growth.

For test [2], the system named is DU145 cells. Nature of the test: Combination of Example 1 and Metmetlico on the growth of DU145 cells. The format is cell-based, human. As to the method: The cells used correspond to metastatic cells of human prostate cancer DU145. 10^5 DU145 cells are incubated in the various wells of a microplate in 1 ml of culture medium. The test compounds are added 4 hours after placing the cells in the wells. After 72 hours, the cells are removed at different times. The cells are washed twice with PBS and recovered directly with 0.1M sodium chloride. The effect on the growth of DU145 cells is measured by protein assay according to the Lowry method (Lowry, O. H., Rosenbrough, […]. and Randall, J. Biol. Chem. 193, 265-275, (1951)) and DNA assay by the Hoechst method (West, […]. and Kumar, S., Anal. Biochem. 147, 289-295, (1985)). The test compounds are the compound of Example 1, metmetlico and a mixture thereof.

The test system of the next test is L1210T cells. Nature of the test: Growth of L1210T cells (L1210 bearing human ALDH1 cDNA). The format is cell-based, mouse. The following applies: 50% inhibition of growth. The protocol:
The cells used correspond to various cell lines: human lung normal embryonic fibroblasts (MRC5), mouse melanoma cells (B16), mouse lymphocytic leukaemia cells (L1210) and L1210T cells obtained by infecting L1210 cells with a retroviral vector bearing human ALDH1 cDNA.
The procedure used for the tests on the L1210 cells is as follows: • 10^5 cells are incubated in the various wells of a microplate in 1 ml of culture medium. After incubating for 4 hours, the test compounds are added to the wells containing the L1210 cells.
For the L1210 cells, the growth is measured by counting the viable cells in the presence of 0.1% Trypan blue.
The IC50 concentration is the concentration corresponding to a 50% inhibition of growth of the cells.

For the compound `CSC(=O)C#CC(C)(C)N(C)C` [Example 1, S-methyl 4-dimethyl-amino-4-methyl-2-pentynethioate], in the test with DU145 cells [1], the “% Inhibition of DU145 cells” value is 21.3%. Further, the “DNA fragmentation (%)” value in the test on BAF3-bcl2 G18 cells (G18, 1 μM) was 0.6%; with BAF3-bcl2 G18 cells (G18, 2 μM) it was 7.3%; in the test with BAF3-bcl2 G18 cells (G18, 4 μM) it was 52.7%; with BAF3-bcl2 G18 cells (G18, 8 μM), 84.3%; in the test with BAF3-bcl2 B14 cells (B14, 1 μM), 0%; with BAF3-bcl2 B14 cells (B14, 2 μM) it was 2.0%. Further, the “DNA fragmentation (%)” value with BAF3-bcl2 B14 cells (B14, 4 μM) is reported as 44.1%; in the test with BAF3-bcl2 B14 cells (B14, 8 μM), 90.0%; in the test on BAF3-b0 cells (b0, 1 μM) it was 5.0%; with BAF3-b0 cells (b0, 2 μM), 10.6%; in the test on BAF3-b0 cells (b0, 4 μM), 46.4%; with BAF3-b0 cells (b0, 8 μM) it was 71.1%. Further, in the test on K562 cells, the “Inhibition of the growth of the K562 cells” value is reported as “inhibitory effect obtained at the same concentrations on the growth of the K562 cells”. In addition, the concentration for half-maximal inhibition (IC50) – broadly, the midpoint of a concentration-inhibition curve – with BAF3 bcl2 cells was found to be 0.25 µM; in the test with L1210T cells, 1.6 µM. Moreover, the figures for the “% Inhibition of growth of the DU145 cells” value in the test with DU145 cells [2] (2 μM), in the test on DU145 cells [2] (3 μM) and with DU145 cells [2] (4 μM) were 5.8%, 16.1% and 22.4%, respectively.
